Measurements reported in US11098056B2, “UDP glycosyltransferase inhibitors and methods of use” (GENZYME CORPORATION, priority 2018, dated 2021).
Counter-ions that a name gives are not always drawn.

Biological target: T1, UGT8 (Homo sapiens, UniProt Q16880)
T1 construct: host or cells: OE19 cells
T1 sequence (Q16880 21-541): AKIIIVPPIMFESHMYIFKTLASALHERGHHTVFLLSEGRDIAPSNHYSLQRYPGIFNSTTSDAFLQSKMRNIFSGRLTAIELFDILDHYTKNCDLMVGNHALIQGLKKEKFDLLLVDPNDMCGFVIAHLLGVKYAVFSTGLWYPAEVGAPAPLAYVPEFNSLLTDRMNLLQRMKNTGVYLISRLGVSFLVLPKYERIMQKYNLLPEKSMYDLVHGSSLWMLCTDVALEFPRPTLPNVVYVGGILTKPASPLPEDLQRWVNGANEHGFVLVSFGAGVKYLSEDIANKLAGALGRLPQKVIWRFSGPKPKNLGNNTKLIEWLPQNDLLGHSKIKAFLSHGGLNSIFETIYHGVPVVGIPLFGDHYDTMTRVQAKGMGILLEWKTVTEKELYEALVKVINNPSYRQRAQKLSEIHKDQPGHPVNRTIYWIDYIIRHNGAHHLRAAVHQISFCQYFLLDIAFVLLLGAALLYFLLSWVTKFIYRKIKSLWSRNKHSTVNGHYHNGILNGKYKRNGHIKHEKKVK
Assay: In vitro sulfatide (SFT) synthesis inhibition in OE19 cells, LC-MS/MS readout
Assay type: cell-based
Details: 72 hr, sulfatide by LC-MS/MS, read-out: Potency range (IC50, In-vitro SFT)
Description: For medium throughput screening, library compounds were dispensed into CellBIND 384 well plates to a final concentration of 10 μM. OE19 cells (Sigma) were grown in to 70-90% confluency in RPMI 1640+L-glutamine and […]; were trypsinized to achieve suspension and were aliquoted at 2,500 cells/well, total well volume 50 μl. Plates were incubated 72 hr at 37° C. in 5% CO2; supernatant was removed and plates were dried, heat-sealed and stored at −20° C. until analysis.
For IC50 determinations, the same procedure was followed except that test compounds were added to the plate as dose-downs in triplicate to yield concentration response curves.
Mass Spectrometer Analysis of Sulfatide (SFT):
Assay plates were thawed and 85 μl mobile phase B (5 mM ammonium formate^+0.2% formic acid in 50:50 methanol:acetonitrile). Fifteen μl 20 ng/ml C17 SFT in mobile phase B was added as an internal standard.
SFT was analyzed using an Applied Biosystems API-4000 triple quad mass spectrometer interfaced to a Thermo Scientific Multiplex system (LX-4) equipped with four pumps. Chromatography of OE19 cell samples or 2B5-mouse cells treated with compounds was performed using a Waters Acquity UPLC BEH C8 2.1×50 mm column with 1.7 um particle size. The chromatography was performed using the following mobile phases. Mobile phase A (MPA): 0.2% formic acid and 5 mM ammonium formate in deionized water; MPB: see above. The LC method was run in isocratic mode for 4 sequentially running columns using 95% MPB and 5% MPA with flow rate of 1 ml/min and a column temperature of 60° C.
The Triple quad mass spectrometer was run in Negative Ionization mode monitoring the following MRM transitions and using the following parameters:
Electrospray voltage was […], and source temperature was 550° C.

IC50 [µM]	Structure (SMILES)
< 0.1	CNC(=O)c1csc2c(C(F)(F)F)cc(OC3CN(C(=O)OCCOC(F)(F)F)C3)nc12 [Example 256, 2-(Trifluoromethoxy)ethyl 3-((3-(methylcarbamoyl)-7-(trifluoromethyl)thieno[3,2-b]pyridin-5-yl)oxy)azetidine-1-carboxylate]
0.1 to 1	CNC(=O)c1csc2c(C(F)(F)F)cc(OC3(C)CN(C(=O)OC(C)(C)C)C3)nc12 [Example 269, tert-Butyl 3-methyl-3-((3-(methylcarbamoyl)-7-(trifluoromethyl)thieno[3,2-b]pyridin-5-yl)oxy)azetidine-1-carboxylate]
< 0.1	CNC(=O)c1csc2c(C(F)(F)F)cc(N3CCC(NC(=O)OCC(C)C)CC3)nc12 [Example 297, Isobutyl (1-(3-(methylcarbamoyl)-7-(trifluoromethyl)thieno[3,2-b]pyridin-5-yl)piperidin-4-yl) carbamate]
< 0.1	CNC(=O)c1csc2c(C(F)(F)F)cc(N3CC(NC(=O)OC(C)(C)C)C3)nc12 [Example 300, tert-Butyl (1-(3-(methylcarbamoyl)-7-(trifluoromethyl)thieno[3,2-b]pyridin-5-yl)azetidin-3-yl)carbamate]
< 0.1	CNC(=O)c1csc2c(C(F)(F)F)cc(N3CC4(CN(C(=O)OC5COC5)C4)C3)nc12 [Example 339, Oxetan-3-yl 6-(3-(methylcarbamoyl)-7-(trifluoromethyl)thieno[3,2-b]pyridin-5-yl)-2,6-diazaspiro[3.3]heptane-2-carboxylate]
< 0.1	CNC(=O)c1csc2c(C(F)(F)F)cc(N3CC4(CN(C(=O)OC(C)CC#N)C4)C3)nc12 (centres unmarked) [Example 350, 1-Cyanopropan-2-yl 6-(3-(methylcarbamoyl)-7-(trifluoromethyl)thieno[3,2-b]pyridin-5-yl)-2,6-diazaspiro[3.3]heptane-2-carboxylate]
< 0.1	CNC(=O)c1csc2c(C(F)(F)F)cc(N3CCC(OCCN4CCC(F)(F)C4)CC3)nc12 [Example 361, 5-(4-(2-(3,3-Difluoropyrrolidin-1-yl)ethoxy)piperidin-1-yl)-N-methyl-7-(trifluoromethyl)thieno[3,2-b]pyridine-3-carboxamide]
< 0.1	CNC(=O)c1csc2c(C(F)(F)F)cc(O[C@@H]3CCN(C(=O)OC(C)(C)C)[C@H](C)C3)nc12 [Example 373, tert-Butyl (2R,4R)-2-methyl-4-((3-(methylcarbamoyl)-7-(trifluoromethyl)thieno[3,2-b]pyridin-5-yl)oxy)piperidine-1-carboxylate]
< 0.1	CNC(=O)c1csc2c(C(F)(F)F)c(C)c(OC3CCN(C(=O)OC(C)(C)C)CC3)nc12 [Example 389, tert-Butyl 4-((6-methyl-3-(methylcarbamoyl)-7-(trifluoromethyl)thieno[3,2-b]pyridin-5-yl)oxy)piperidine-1-carboxylate]
< 0.1	CNC(=O)c1csc2c(C(F)(F)F)c(C)c(OC3CCN(C(=O)OCCOC(F)(F)F)CC3)nc12 [Example 390, 2-(Trifluoromethoxy)ethyl 4-((6-methyl-3-(methylcarbamoyl)-7-(trifluoromethyl)thieno[3,2-b]pyridin-5-yl)oxy)piperidine-1-carboxylate]
0.1 to 1	CNC(=O)c1c(C)sc2c(C(F)(F)F)cc(N3CCN(CC(=O)NC(C)C)CC3)nc12 [Example 408, 5-(4-(2-(Isopropylamino)-2-oxoethyl)piperazin-1-yl)-N,2-dimethyl-7-(trifluoromethyl)thieno[3,2-b]pyridine-3-carboxamide]
< 0.1	CNC(=O)c1c(C)sc2c(C(F)(F)F)cc(N3CCC(OC(=O)NCC4CC4)CC3)nc12 [Example 415, 1-(2-Methyl-3-(methylcarbamoyl)-7-(trifluoromethyl)thieno[3,2-b]pyridin-5-yl)piperidin-4-yl (cyclopropylmethyl)carbamate]
> 1	CC(C)NC(=O)c1csc2c(C(F)(F)F)cc(N3CCC(NC4CCC(C(F)(F)F)CC4)C3)nc12 (centres unmarked) [Example 419, N-Isopropyl-7-(trifluoromethyl)-5-(3-((4-(trifluoromethyl)cyclohexyl)amino)pyrrolidin-1-yl)thieno[3,2-b]pyridine-3-carboxamide]
> 1	CCNC(=O)c1csc2c(C3CC3)cc(N3CCN(CC(=O)NC(C)C)CC3)nc12 [Example 420, 7-Cyclopropyl-N-ethyl-5-(4-(2-(isopropylamino)-2-oxoethyl)piperazin-1-yl)thieno[3,2-b]pyridine-3-carboxamide]
0.1 to 1	CC(C)(C)NC(=O)OC1CCN(c2cc(C(F)(F)F)c3scc(C(=O)N4CCC4)c3n2)CC1 [Example 422, 1-(3-(Azetidine-1-carbonyl)-7-(trifluoromethyl)thieno[3,2-b]pyridin-5-yl)piperidin-4-yl tert-butylcarbamate]
< 0.1	COC(=O)c1csc2c(C(F)(F)F)cc(N3CCC(OC(=O)NCC4CC4)CC3)nc12 [Example 428, Methyl 5-(4-(((cyclopropylmethyl)carbamoyl)oxy)piperidin-1-yl)-7-(trifluoromethyl)thieno[3,2-b]pyridine-3-carboxylate]
< 0.1	CNC(=O)c1csc2c(Cl)cc(N3CCC(OC(=O)NCC4CC4)CC3)nc12 [Example 449, 1-(7-Chloro-3-(methylcarbamoyl)thieno[3,2-b]pyridin-5-yl)piperidin-4-yl (cyclopropylmethyl)carbamate]
< 0.1	CNC(=O)c1csc2c(C(F)F)cc(N3CCC(OC(=O)NC(C)C)CC3)nc12 [Example 452, 1-(7-(Difluoromethyl)-3-(methylcarbamoyl)thieno[3,2-b]pyridin-5-yl)piperidin-4-yl isopropylcarbamate]
< 0.1	CNC(=O)c1csc2c(C(F)(F)F)cc(N3CCC(OC(=O)NCC4CC4)CC3)nc12 [Example 474, 1-(3-(Methylcarbamoyl)-7-(trifluoromethyl)thieno[3,2-b]pyridin-5-yl)piperidin-4-yl (cyclopropylmethyl)carbamate]
< 0.1	CNC(=O)c1csc2c(C(F)(F)F)cc(N3CC[C@@H](OC(=O)NC(C)C)[C@H](F)C3)nc12 [Example 495, (3R,4R)-3-Fluoro-1-(3-(methylcarbamoyl)-7-(trifluoromethyl)thieno[3,2-b]pyridin-5-yl)piperidin-4-yl isopropylcarbamate]
< 0.1	CNC(=O)c1csc2c(C(F)(F)F)cc(N3CCC(NC(=O)OCCC#N)CC3)nc12 [Example 505, 2-Cyanoethyl (1-(3-(methylcarbamoyl)-7-(trifluoromethyl)thieno[3,2-b]pyridin-5-yl)piperidin-4-yl)carbamate]
< 0.1	CNC(=O)c1csc2c(C(F)(F)F)cc(N3CCC(NC(=O)OCCOC(F)(F)F)CC3)nc12 [Example 520, 2-(Trifluoromethoxy)ethyl (1-(3-(methylcarbamoyl)-7-(trifluoromethyl)thieno[3,2-b]pyridin-5-yl)piperidin-4-yl)carbamate]
< 0.1	CNC(=O)c1csc2c(C(F)(F)F)cc(N3CCN(Cc4nc(C(C)C)cs4)CC3)nc12 [Example 528, 5-(4-((4-Isopropylthiazol-2-yl)methyl)piperazin-1-yl)-N-methyl-7-(trifluoromethyl)thieno[3,2-b]pyridine-3-carboxamide]
> 1	CNC(=O)c1csc2c(C(F)(F)F)cc(N3CCN(CC4CN(C(C)C)CCO4)CC3)nc12 (centres unmarked) [Example 552, 5-(4-((4-Isopropylmorpholin-2-yl)methyl)piperazin-1-yl)-N-methyl-7-(trifluoromethyl)thieno[3,2-b]pyridine-3-carboxamide trifluoroacetate]
< 0.1	CNC(=O)c1csc2c(C(F)(F)F)cc(C3CCN(C(=O)O[C@@H](C)C4CC4)CC3)nc12 [Example 566, (S)-1-Cyclopropylethyl 4-(3-(methylcarbamoyl)-7-(trifluoromethyl)thieno[3,2-b]pyridin-5-yl)piperidine-1-carboxylate]

Structure (SMILES)	IC50 [µM]
COC(=O)c1csc2c(C(F)(F)F)cc(C3CCN(C(=O)OC(C)(C)C)CC3)nc12 [Example 274, Methyl 5-(1-(tert-butoxycarbonyl)piperidin-4-yl)-7-(trifluoromethyl)thieno[3,2-b]pyridine-3-carboxylate]	0.1 to 1
